These results are taken from US10435402B2, “Bicyclic compounds, compositions and medicinal applications thereof” (Advinus Therapeutics Limited, priority 2015, dated 2019).

The target in this assay is T1, GAL4-DBD/RORγ-LBD (Homo sapiens, UniProt P51449).
T1 construct: expressed in transfected cells; host or cells: HEK293T
T1 sequence (P51449 269-508 limits assumed): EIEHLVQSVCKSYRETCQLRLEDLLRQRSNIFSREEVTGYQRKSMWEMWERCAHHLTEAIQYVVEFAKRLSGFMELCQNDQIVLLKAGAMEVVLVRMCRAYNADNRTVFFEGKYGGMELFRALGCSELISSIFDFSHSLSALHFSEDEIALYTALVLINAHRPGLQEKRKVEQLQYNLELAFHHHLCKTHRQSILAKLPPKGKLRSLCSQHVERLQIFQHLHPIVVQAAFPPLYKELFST
T1 sequence (P04386 1-147 partner limits assumed): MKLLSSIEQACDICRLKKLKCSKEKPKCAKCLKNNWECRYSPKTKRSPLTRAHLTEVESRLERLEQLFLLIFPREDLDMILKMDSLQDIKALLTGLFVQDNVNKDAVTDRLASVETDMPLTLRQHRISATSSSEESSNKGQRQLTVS
The assay can be described thus: RORγt transactivation reporter assay (GAL4-DBD/RORγ-LBD, luciferase read out). Format: cell-based. The note with it: HEK293T cells, GAL4-UAS luciferase reporter, overnight (18-24 hours) incubation. How it is done: RORγt Transactivation Reporter Assay Protocol: The inhibition of RORγt activity in cells was evaluated using a GAL4-UAS reporter system in HEK293T cells employing a luciferase read out. RORγt ligand binding domain (LBD) was cloned into the pFN26A (BIND) vector (Promega #[…]) containing yeast GAL4-DBD to form a RORγt LBD-GAL4 DBD fusion construct. This vector also contained a Renilla Luciferase reporter expressed under a SV40 promoter which was used as a control for transfection efficiency. A transcriptional reporter expression construct pGL4.35 (Promega #[…]) was used to monitor RORγt LBD-GAL4 activity. This construct contained nine repeats of GAL4 binding site/upstream activating sequence (UAS) controlling expression of a firefly luciferase reporter Luc2P. When transfected together in cells, the RORγ-LBD-DBD fusion protein drives expression of the luciferase reporter. For the assay, HEK293T cells were plated in a flat bottom 96 well plate at a density of 25,000 cells/well/100 ul of DMEM high glucose medium (Sigma D5648) containing 10% FBS and antibiotic. Cells were incubated overnight at 37 C/5% CO2. The next day, medium from the wells was removed and replaced with 30 ul of OptiMEM® (Invitrogen #31985070). 100 ng each of pBIND RORγ LBD-DBD and pGL4.35 reporter plasmids was transfected in HEK293T cells using Lipofectamine 2000 (Invitrogen #11668-019) where 10 ul of transfection complex was added to the each well. Control transfections were performed with an empty pF[…] vector and pGL4.35 vector. The transfected cells were incubated for 5 hours at 37 C/5% CO2. After incubation, 40 ul of DMEM high glucose medium without FBS, with antibiotic was added to each well. A 10 mM stock solution of test compound prepared in 100% DMSO was first diluted in DMSO and then in DMEM medium without FBS to give the required final compound concentration. Concentration of DMSO in the test compound solution was 0.4%. 20 ul of diluted compound solution was added to each well. Cells were incubated overnight (18-24 hours) at 37 C/5% CO2. The next day, luciferase assay was performed using the Dual Glo® Luciferase Assay System (Promega #E2940). Briefly, medium was removed from the wells and replaced with 40 ul 1× Passive Lysis Buffer (Promega #E1941). Plate was incubated at room temperature on a plate shaker at 1000 rpm for 40 min. After incubation, plate was centrifuged at 1000 rpm for 2 min. 20 ul of the lysate was transferred from each well to that of solid white half area 96 well plate (Costar #3693). Dual Glo® Reagent was thawed to room temperature and 20 ul was added to each well containing lysate. Plate was centrifuged at 1000 rpm/2 min and incubated at room temperature on a plate shaker at 600 rpm/25 min. Firefly luciferase signal was measured on a Tecan Safire2. After measurement, 20 ul of Dual Glo® Stop Glo® Reagent was added to each well. Plate was centrifuged at 1000 rpm/2 min and incubated at room temperature on a plate shaker at 600 rpm/25 min. Renilla luciferase signal was measured on Tecan Safire 2. IC50 values for test compounds were calculated from the normalized luciferase signal data using GraphPad Prism software.
For orientation: IC50 means the point on the concentration scale where inhibition reaches its midpoint. High values mean weaker potency, low ones greater potency. `COC(=O)c1ccc(-c2cc(C(=O)c3c(Cl)ccc(F)c3Cl)n3ccccc23)c(F)c1` [Example A-17, methyl 4-[3-(2,6-dichloro-3-fluoro-benzoyl)indolizin-1-yl]-3-fluoro-benzoate]: the IC50 was less than 500 nM.

`O=C(O)c1ccc(-c2cc(C(=O)c3c(Cl)cccc3Cl)n3cc(C(=O)N4CCC4)ccc23)cc1` [Example D-6, 4-[6-(azetidine-1-carbonyl)-3-(2,6-dichlorobenzoyl)indolizin-1-yl]benzoic acid] gave an IC50 of less than 500 nM.

Compound `O=C(O)c1ccc(-c2cc(C(=O)c3c(Cl)cccc3C(F)(F)F)n3ccccc23)cc1F` [Example A-60, 4-[3-[2-chloro-6-(trifluoromethyl)benzoyl]indolizin-1-yl]-2-fluoro-benzoic acid] registered an IC50 of less than 500 nM.

In turn, `COC(=O)c1ccc(-c2cc(C(=O)c3c(Cl)cccc3C(F)(F)F)n3ccccc23)c(F)c1` [Example A-11, methyl 4-[3-[2-chloro-6-(trifluoromethyl)benzoyl]indolizin-1-yl]-3-fluoro-benzoate] gave a 50% inhibitory concentration (IC50) of less than 500 nM.

`O=C(O)c1ccc(-c2cc(C(=O)c3c(Cl)cccc3Cl)n3cc(C(=O)N4CCOCC4)ccc23)cc1` [Example D-3, 4-[3-(2,6-dichlorobenzoyl)-6-(morpholine-4-carbonyl)indolizin-1-yl]benzoic acid] gave an IC50 of less than 1000 nM.

Regarding `CCOC(=O)c1ccc(-c2cc(C(=O)c3c(F)cccc3Cl)n3cccc(F)c23)cc1` [Example A-32, ethyl 4-[3-(2-chloro-6-fluoro-benzoyl)-8-fluoro-indolizin-1-yl]benzoate], the IC50 was less than 500 nM.

In the case of `CC(C)(C)OC(=O)N1CC=C(c2cc(C(=O)c3c(Cl)cccc3Cl)n3ccccc23)CC1` [Example A-54, tert-butyl 4-[3-(2,6-dichlorobenzoyl)indolizin-1-yl]-3,6-dihydro-2H-pyridine-1-carboxylate], the IC50 was more than 5000 nM.

`O=C(O)c1ccc(-c2cc(C(=O)c3c(Cl)cccc3C(F)(F)F)n3ccccc23)c(F)c1` [Example A-12, 4-[3-[2-chloro-6-(trifluoromethyl)benzoyl]indolizin-1-yl]-3-fluoro-benzoic acid] came in with an IC50 of less than 500 nM.

`O=C(O)c1ccc(-c2cc(C(=O)c3c(Cl)cccc3C(F)(F)F)n3cc(C(=O)N4CCC4)ccc23)cc1` [Example D-11, 4-[6-(azetidine-1-carbonyl)-3-[2-chloro-6-(trifluoromethyl)benzoyl]indolizin-1-yl]benzoic acid] had an IC50 of less than 500 nM.

`COC(=O)c1ccc(-c2cc(Oc3c(Cl)cccc3Cl)n3ccccc23)c(F)c1` [Example E-1, methyl 4-[3-(2,6-dichlorophenoxy)indolizin-1-yl]-3-fluoro-benzoate] displayed an IC50 of less than 500 nM.

In the case of “4-[3-[2-chloro-6-(trifluoromethyl)benzoyl]-6-(pyrrolidine-1-carbonyl)indolizin-1-yl]benzoic acid [Example D-12]”, the IC50 is less than 500 nM.

The compound `O=C(O)c1ccc(-c2cc(C(=O)c3c(Cl)cccc3C(F)(F)F)n3c2CCCC3)c(F)c1` [Example H-4, 4-[3-[2-chloro-6-(trifluoromethyl)benzoyl]-5,6,7,8-tetrahydroindolizin-1-yl]-3-fluoro-benzoic acid] displayed an IC50 of more than 5000 nM.

For the compound `O=C(O)c1ccc(-c2cc(C(=O)c3c(Cl)ccc(F)c3Cl)n3cccc(F)c23)cc1` [Example A-43, 4-[3-(2,6-dichloro-3-fluoro-benzoyl)-8-fluoro-indolizin-1-yl]benzoic acid], the IC50 was less than 500 nM.

For the compound `Cc1c(-c2ccc(C(=O)O)cc2)c2ccccn2c1C(=O)c1c(Cl)cccc1Cl` [Example C-4, 4-[3-(2,6-dichlorobenzoyl)-2-methyl-indolizin-1-yl]benzoic acid], the IC50 was less than 500 nM.

On to `O=C(O)c1ccc(-c2cc(C(=O)c3c(Cl)cccc3C(F)(F)F)n3cccc(Cl)c23)c(F)c1` [Example A-59, 4-[8-chloro-3-[2-chloro-6-(trifluoromethyl)benzoyl]indolizin-1-yl]-3-fluoro-benzoic acid], for which the IC50 was less than 500 nM.

For `O=C(O)c1ccc(-c2cc(Oc3c(Cl)cccc3Cl)n3ccccc23)c(F)c1` [Example E-2, 4-[3-(2,6-dichlorophenoxy)indolizin-1-yl]-3-fluoro-benzoic acid], the IC50 is less than 5000 nM.

Regarding “4-[3-(2-chloro-6-fluoro-benzoyl)indolizin-1-yl]benzoic acid [Example A-28]”, the IC50 is less than 500 nM.

Consider `O=C(O)c1ccc(-c2cc(C(=O)c3c(Cl)ccc(F)c3Cl)n3ccccc23)c(F)c1` [Example A-18, 4-[3-(2,6-dichloro-3-fluoro-benzoyl)indolizin-1-yl]-3-fluoro-benzoic acid], for which the IC50 was less than 500 nM.

In the case of `O=C(c1c(Cl)ccc(F)c1Cl)c1cc(-c2ccc(C(=O)N3CCOCC3)cc2)c2ccccn12` [Example F-3, [4-[3-(2,6-dichloro-3-fluoro-benzoyl)indolizin-1-yl]phenyl]-morpholino-methanone], the IC50 is more than 5000 nM.

Compound `CCOC(=O)c1ccc(-c2c(C)c(C(=O)c3c(Cl)cccc3Cl)n3ccccc23)cc1` [Example C-3, ethyl 4-[3-(2,6-dichlorobenzoyl)-2-methyl-indolizin-1-yl]benzoate] registered an IC50 of less than 500 nM.

Compound `CCOC(=O)c1ccc(-c2cc(C(=O)c3c(F)cccc3Cl)n3ccccc23)cc1` [Example A-24, ethyl 4-[3-(2-chloro-6-fluoro-benzoyl)indolizin-1-yl]benzoate] showed an IC50 of less than 500 nM.

Compound `O=C(O)c1ccc(-c2cc(C(=O)c3c(Cl)cccc3C(F)(F)F)n3ccccc23)cc1` [Example A-2, 4-[3-[2-chloro-6-(trifluoromethyl)benzoyl]indolizin-1-yl]benzoic acid] registered an IC50 of less than 500 nM.

`CCOC(=O)c1ccc(-c2cc(C(=O)c3c(C)cccc3Cl)n3ccccc23)cc1` [Example A-14, ethyl 4-[3-(2-chloro-6-methyl-benzoyl)indolizin-1-yl]benzoate] returned an IC50 of less than 500 nM.

In turn, `CCS(=O)(=O)N1CCC=C(c2cc(C(=O)c3c(Cl)ccc(F)c3Cl)n3ccccc23)C1` [Example G-2, (2,6-dichloro-3-fluoro-phenyl)-[1-(1-ethylsulfonyl-3,6-dihydro-2H-pyridin-5-yl)indolizin-3-yl]methanone] gave an IC50 of more than 5000 nM.

For the compound “4-[3-(2,6-dichlorobenzoyl)-6-(methylcarbamoyl)indolizin-1-yl]benzoic acid [Example D-9]”, the IC50 is less than 5000 nM.

`CNC(=O)c1ccc(-c2nc(C(=O)c3c(Cl)ccc(F)c3Cl)n3ccccc23)cc1` [Example F-1, 4-[3-(2,6-dichloro-3-fluoro-benzoyl)imidazo[1,5-a]pyridin-1-yl]-N-methyl-benzamide]: the IC50 is more than 5000 nM.

`COC(=O)c1ccc(-c2cc(C(=O)c3c(Cl)cccc3Cl)n3ccccc23)c(F)c1` [Example A-4, methyl 4-[3-(2,6-dichlorobenzoyl)indolizin-1-yl]-3-fluoro-benzoate] displayed an IC50 of less than 500 nM.

`CCOC(=O)c1ccc(-c2cc(C(=O)c3c(Cl)ccc(F)c3Cl)n3ccccc23)cc1` [Example A-56, ethyl 4-[3-(2,6-dichloro-3-fluoro-benzoyl)indolizin-1-yl]benzoate] registered an IC50 of less than 500 nM.

In turn, `CCOC(=O)c1ccc(-c2cc(C(=O)c3c(Cl)cccc3C(F)(F)F)n3ccccc23)cc1` [Example A-1, Ethyl 4-[3-[2-chloro-6-(trifluoromethyl)benzoyl]indolizin-1-yl]benzoate] came in with an IC50 of less than 500 nM.

Take `O=C(O)c1ccc(-c2cc(C(=O)c3c(Cl)cccc3Cl)n3cc(C(=O)N4CCCC4)ccc23)cc1` [Example D-5, 4-[3-(2,6-dichlorobenzoyl)-6-(pyrrolidine-1-carbonyl)indolizin-1-yl]benzoic acid]: the 50% inhibitory concentration (IC50) is less than 500 nM.

`CCOC(=O)c1ccc(-c2c(C)c(C(=O)c3c(Cl)cccc3C(F)(F)F)n3ccccc23)cc1` [Example C-9, ethyl 4-[3-[2-chloro-6-(trifluoromethyl)benzoyl]-2-methyl-indolizin-1-yl]benzoate]: the IC50 is less than 500 nM.
